# From patent US8546452B2, “S1P3 receptor antagonist” (TOA Eiyo Ltd., priority 2005, dated 2013)
# Target: hS1P3 (Homo sapiens, UniProt Q99500)
# Assay: Suppressive effect on S1P-induced increase in [Ca2+]i, CHO-K1 cells expressing S1P3 (Fura 2-AM), IC50
# Type: cell-based
# Settings: S1P solution 50 nmol/L, read-out: hS1P3 suppression IC50
# hS1P3, sequence (Q99500 whole entry): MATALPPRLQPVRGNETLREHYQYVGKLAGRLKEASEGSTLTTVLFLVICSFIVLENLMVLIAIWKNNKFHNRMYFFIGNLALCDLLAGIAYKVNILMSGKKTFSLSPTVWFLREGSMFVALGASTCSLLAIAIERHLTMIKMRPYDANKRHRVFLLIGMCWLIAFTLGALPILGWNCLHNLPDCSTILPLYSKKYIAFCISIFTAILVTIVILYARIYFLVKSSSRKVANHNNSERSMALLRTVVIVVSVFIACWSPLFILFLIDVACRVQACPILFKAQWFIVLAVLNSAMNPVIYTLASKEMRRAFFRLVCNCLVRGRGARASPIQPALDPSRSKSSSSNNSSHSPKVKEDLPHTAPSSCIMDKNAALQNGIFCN
row,IC50,Compound
1,6.72 µM,"O=C(C(=NNc1ccc(Cl)cc1)Nc1cccc(F)c1)c1ccccc1 [Compound 1, 2-(4-Chlorophenylhydrazono)-2-(3-fluorophenylamino)acetophenone]"
2,2.81 µM,"O=C(C(=NNc1ccc(Cl)cc1)Nc1cc(Cl)nc(Cl)c1)c1ccccc1 [Compound 4, 2-(4-chlorophenylhydrazono)-2-(2,6-dichloropyridin-4-ylamino)acetophenone]"
3,4.57 µM,"O=C(C(=NNc1ccc(Cl)cc1)Nc1ccc(F)cc1)c1ccccc1 [Compound 9, 2-(4-chlorophenylhydrazono)-2-(4-fluorophenylamino)acetophenone]"
4,5.34 µM,"O=C(C(=NNc1ccc(Cl)cc1)Nc1cccc(Cl)c1)c1ccccc1 [Compound 11, 2-(3-chlorophenylamino)-2-(4-chlorophenylhydrazono)acetophenone]"
5,4.84 µM,"O=C(C(=NNc1ccc(Cl)cc1)Nc1ccc(Cl)cc1)c1ccccc1 [Compound 12, 2-(4-chlorophenylamino)-2-(4-chlorophenylhydrazono)acetophenone]"
6,1.87 µM,"CCOC(=O)C(=NNc1ccc(Cl)cc1)Nc1ccc(Cl)cc1 [Compound 14, ethyl 1-(4-chlorophenylamino)-1-(4-chlorophenylhydrazono)acetate]"
7,3.94 µM,"CCOC(=O)C(=NNc1ccc(Cl)cc1)Nc1cccc(C(F)(F)F)c1 [Compound 16, ethyl 1-(4-chlorophenylhydrazono)-1-(3-trifluoromethylphenylamino)acetate]"
8,1.92 µM,"CCOC(=O)C(=NNc1ccc(Cl)cc1)Nc1cc(F)cc(F)c1 [Compound 17, ethyl 1-(4-chlorophenylhydrazono)-1-(3,5-difluorophenylamino)acetate]"
9,2.34 µM,"CCOC(=O)C(=NNc1ccc(Cl)cc1)Nc1cc(Cl)cc(Cl)c1 [Compound 18, ethyl 1-(4-chlorophenylhydrazono)-1-(3,5-dichlorophenylamino)acetate]"
10,14.5 µM,"O=C(C(=NNc1ccc(Cl)cc1)Nc1ccc(Cl)cc1)N1CCCCC1 [Compound 23, [1-(4-chlorophenylamino)-1-(4-chlorophenylhydrazono)acetyl]piperidine]"
11,11.7 µM,"O=C(C(=NNc1ccc(Cl)cc1)Nc1cc(F)cc(F)c1)N1CCCCC1 [Compound 25, [1-(4-chlorophenylhydrazono)-1-(3,5-difluorophenylamino)acetyl]piperidine]"
12,12.3 µM,"CC(C)(C)NC(=O)C(=NNc1ccc(Cl)cc1)Nc1cc(Cl)cc(Cl)c1 [Compound 30, N-tert-butyl-[1-(4-chlorophenylhydrazono)-1-(3,5-dichlorophenylamino)]acetamide]"
13,10.5 µM,"CC(C)(C)NC(=O)C(=NNc1ccc(Cl)cc1)Nc1ccc(Cl)c(Cl)c1 [Compound 31, N-tert-butyl-[1-(4-chlorophenylhydrazono)-1-(3,4-dichlorophenylamino)]acetamide]"
14,1.22 µM,"CC(C)(C)C(=O)C(=NNc1ccc(Cl)cc1)Nc1cc(F)cc(F)c1 [Compound 34, 1-(4-chlorophenylhydrazono)-1-(3,5-difluorophenylamino)-3,3-dimethyl-2-butanone]"
15,7.49 µM,"CC(C)(C)C(=O)C(=NNc1ccc(Cl)cc1)Nc1cc(Cl)nc(Cl)c1 [Compound 35, 1-(4-chlorophenylhydrazono)-1-(2,6-dichloropyridin-4-ylamino)-3,3-dimethyl-2-butanone]"
16,2.53 µM,"CC(C)(C)C(=O)C(=NNc1ccc(Cl)cc1)Nc1cccc(C(F)(F)F)c1 [Compound 36, 1-(4-chlorophenylhydrazono)-1-(3-trifluoromethylphenylamino)-3,3-dimethyl-2-butanone]"
17,0.49 µM,"CC(C)(C)C(=O)C(=NNc1ccc(Cl)cc1)Nc1cc(Cl)cc(Cl)c1 [Compound 37, 1-(4-chlorophenylhydrazono)-1-(3,5-dichlorophenylamino)-3,3-dimethyl-2-butanone]"
18,0.31 µM,"CC(C)(C)C(=O)C(=NNc1ccc(Cl)cc1)Nc1ccc(Cl)c(Cl)c1 [Compound 38, 1-(4-chlorophenylhydrazono)-1-(3,4-dichlorophenylamino)-3,3-dimethyl-2-butanone]"
19,2.44 µM,"CC(C)(C)C(=O)C(=NNc1ccccc1)Nc1cc(Cl)cc(Cl)c1 [Compound 51, 1-(3,5-dichlorophenylamino)-1-(phenylhydrazono)-3,3-dimethyl-2-butanone]"
20,2.75 µM,"CC(C)(C)C(=O)C(=NNc1ccc(F)cc1)Nc1ccc(Cl)cc1 [Compound 55, 1-(4-chlorophenylamino)-1-(4-fluorophenylhydrazono)-3,3-dimethyl-2-butanone]"
21,2.16 µM,"CC(C)(C)C(=O)C(=NNc1ccc(F)cc1)Nc1ccc(Br)cc1 [Compound 56, 1-(4-bromophenylamino)-1-(4-fluorophenylhydrazono)-3,3-dimethyl-2-butanone]"
22,5.72 µM,"CC(C)(C)C(=O)C(=NNc1ccc(F)cc1)Nc1ccc(C(F)(F)F)cc1 [Compound 58, 1-(4-fluorophenylhydrazono)-1-(4-trifluoromethylphenylamino)-3,3-dimethyl-2-butanone]"

row,IC50,Compound
1,1.39 µM,"CC(C)(C)C(=O)C(=NNc1ccc(F)cc1)Nc1cc(Cl)cc(Cl)c1 [Compound 59, 1-(3,5-dichlorophenylamino)-1-(4-fluorophenylhydrazono)-3,3-dimethyl-2-butanone]"
2,1.02 µM,"CC(C)(C)C(=O)C(=NNc1ccc(F)cc1)Nc1ccc(Cl)c(Cl)c1 [Compound 60, 1-(3,4-dichlorophenylamino)-1-(4-fluorophenylhydrazono)-3,3-dimethyl-2-butanone]"
3,7.05 µM,"CC(C)(C)C(=O)C(=NNc1ccc(C(F)(F)F)cc1)Nc1cccc(F)c1 [Compound 66, 1-(3-fluorophenylamino)-1-(4-trifluoromethylphenylhydrazono)-3,3-dimethyl-2-butanone]"
4,9.09 µM,"CC(C)(C)C(=O)C(=NNc1ccc(C(F)(F)F)cc1)Nc1ccc(Cl)cc1 [Compound 68, 1-(4-chlorophenylamino)-1-(4-trifluoromethylphenylhydrazono)-3,3-dimethyl-2-butanone]"
5,3.64 µM,"CC(C)(C)C(=O)C(=NNc1ccc(C(F)(F)F)cc1)Nc1ccc(Cl)c(Cl)c1 [Compound 72, 1-(3,4-dichlorophenylamino)-1-(4-trifluoromethylphenylhydrazono)-3,3-dimethyl-2-butanone]"
6,1.51 µM,"CC(C)(C)C(=O)C(=NNc1ccc(Br)cc1)Nc1ccc(C#N)cc1 [Compound 77, 1-(4-bromophenylhydrazono)-1-(4-cyanophenylamino)-3,3-dimethyl-2-butanone]"
7,5.52 µM,"CC(C)(C)C(=O)C(=NNc1ccc(C#N)cc1)Nc1cccc(F)c1 [Compound 81, 1-(4-cyanophenylhydrazono)-1-(3-fluorophenylamino)-3,3-dimethyl-2-butanone]"
8,5.07 µM,"CC(C)(C)C(=O)C(=NNc1ccc(C#N)cc1)Nc1ccc(F)cc1 [Compound 82, 1-(4-cyanophenylhydrazono)-1-(4-fluorophenylamino)-3,3-dimethyl-2-butanone]"
9,6.64 µM,"C#Cc1ccc(NC(=NNc2ccc(C#N)cc2)C(=O)C(C)(C)C)cc1 [Compound 86, 1-(4-cyanophenylhydrazono)-1-(4-ethynylphenylamino)-3,3-dimethyl-2-butanone]"
10,14 µM,"COc1ccc(NC(=NNc2ccc(C#N)cc2)C(=O)C(C)(C)C)cc1 [Compound 87, 1-(4-cyanophenylhydrazono)-1-(4-methoxyphenylamino)-3,3-dimethyl-2-butanone]"
11,6.58 µM,"COc1ccc(NN=C(Nc2ccc(Cl)cc2)C(=O)C(C)(C)C)cc1 [Compound 90, 1-(4-chlorophenylamino)-1-(4-methoxyphenylhydrazono)-3,3-dimethyl-2-butanone]"
12,8.9 µM,"CC(=O)c1ccc(NN=C(Nc2cccc(F)c2)C(=O)C(C)(C)C)cc1 [Compound 91, 1-(4-acetylphenylhydrazono)-1-(3-fluorophenylamino)-3,3-dimethyl-2-butanone]"
13,11.6 µM,"CC(=O)c1ccc(NN=C(Nc2ccc(F)cc2)C(=O)C(C)(C)C)cc1 [Compound 92, 1-(4-acetylphenylhydrazono)-1-(4-fluorophenylamino)-3,3-dimethyl-2-butanone]"
14,18.6 µM,"C#Cc1ccc(NC(=NNc2ccc(C(C)=O)cc2)C(=O)C(C)(C)C)cc1 [Compound 95, 1-(4-acetylphenylhydrazono)-1-(4-ethynylphenylamino)-3,3-dimethyl-2-butanone]"
15,10.6 µM,"CC(C)(C)C(=O)C(=NNc1ccc(S(C)(=O)=O)cc1)Nc1ccc(Cl)cc1 [Compound 99, 1-(4-chlorophenylamino)-1-(4-methanesulfonylphenylhydrazono)-3,3-dimethyl-2-butanone]"
16,0.52 µM,"CC(C)(C)C(=O)C(=NNc1ccc(Br)cc1)Nc1ccc(Cl)c(F)c1 [Compound 105, 1-(4-bromophenylhydrazono)-1-(4-chloro-3-fluorophenylamino)-3,3-dimethyl-2-butanone]"
17,0.66 µM,"C#Cc1ccc(NN=C(Nc2ccc(Cl)cc2)C(=O)C(C)(C)C)cc1 [Compound 106, 1-(4-chlorophenylamino)-1-(4-ethynylphenylhydrazono)-3,3-dimethyl-2-butanone]"
18,0.69 µM,"C#Cc1cccc(NC(=NNc2ccc(Cl)c(Cl)c2)C(=O)C(C)(C)C)c1 [Compound 107, 1-(3,4-dichlorophenylhydrazono)-1-(3-ethynylphenylamino)-3,3-dimethyl-2-butanone]"
19,0.76 µM,"CCCCC(=O)C(=NNc1ccc(Cl)cc1)Nc1ccc(Cl)c(Cl)c1 [Compound 109, 1-(4-chlorophenylhydrazono)-1-(3,4-dichlorophenylamino)-2-hexanone]"
20,0.97 µM,"CCC(CC)C(=O)C(=NNc1ccc(Cl)cc1)Nc1ccc(Cl)cc1 [Compound 110, 1-(4-chlorophenylamino)-1-(4-chlorophenylhydrazono)-3-ethyl-2-pentanone]"
21,2.09 µM,"CC(C)(C)CC(=O)C(=NNc1ccc(Cl)cc1)Nc1ccc(F)cc1 [Compound 114, 1-(4-chlorophenylhydrazono)-1-(4-fluorophenylamino)-4,4-dimethyl-2-pentanone]"
22,2.07 µM,"O=C(C(=NNc1ccc(Cl)cc1)Nc1ccc(Cl)cc1)c1ccco1 [Compound 116, 1-(4-chlorophenylamino)-1-(4-chlorophenylhydrazono)-2-(2-furyl)-2-ethanone]"
